Laboratory results as given in patent publication US20260274892A1, “MACROCYCLIC BROAD SPECTRUM ANTIBIOTICS” (RQx Pharmaceuticals, Inc., priority 2017, published 2026).

Experiments:
[1] = system: Methicillin Resistant Staphylococcus aureus strain USA 200; test: Minimum inhibitory concentration (MIC), CLSI broth micro-dilution, S. aureus; assay type: cell-based; details: Staphylococcus aureus, MRSA / USA200; Table 6; MRSA USA 200; cation adjusted Mueller Hinton Broth + 0.002% Tween-80; 35° C., 22 hours
How it was run: (§1)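 Antibacterial potency is measured as MIC by the CLSI broth dilution method. Bacteria at OD600 0.0005 in Tween-80-supplemented cation-adjusted Mueller Hinton broth face ten twofold compound dilutions for 22 h at 35° C.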

[2] = system: Escherichia coli ATCC 25922; test: Minimum inhibitory concentration (MIC), CLSI broth micro-dilution, E. coli; assay type: cell-based; details: Escherichia coli, ATCC25922, 22 h, Table 6, cation adjusted Mueller Hinton Broth + 0.002% Tween-80, 35° C.
How it was run: as §1

SMILES | MIC [1] | MIC [2]
Cc1cc(-c2ccc(C(C)(C)C)cc2)cc(C)c1C(=O)N[C@@H](CCN)C(=O)N(C)[C@@H]1C(=O)N[C@@H](C)C(=O)N[C@H](C(=O)NCC#N)Cc2ccc(OCCN)c(c2)-c2cc1ccc2OCCN (racemic) [Compound 370, rac-(8S,11S,14S)-3,18-bis(2-aminoethoxy)-N-(cyanomethyl)-11-methyl-14-[methyl-[rac-(2S)-4-amino-2-[[4-(4-tert-butylphenyl)-2,6-dimethyl-benzoyl]amino]butanoyl]amino]-10,13-dioxo-9,12-diazatricyclo[13.3.1.12,6]icosa-1(18),2(20),3,5,15(19),16-hexaene-8-carboxamide] | 0.031 µM | 0.19 µM
C[C@@H]1NC(=O)[C@@H](N(C)C(=O)[C@H](CCN)NC(=O)c2ccc(-c3ccc(C(C)(C)C)cc3)cc2Cl)c2ccc(OCCN)c(c2)-c2cc(ccc2OCCN)C[C@@H](C(=O)NCC#N)NC1=O (racemic) [Compound 371, rac-(8S,11S,14S)-3,18-bis(2-aminoethoxy)-N-(cyanomethyl)-11-methyl-14-[methyl-[rac-(2S)-4-amino-2-[[4-(4-tert-butylphenyl)-2-chloro-benzoyl]amino]butanoyl]amino]-10,13-dioxo-9,12-diazatricyclo[13.3.1.12,6]icosa-1(18),2(20),3,5,15(19),16-hexaene-8-carboxamide] | 0.031 µM | 0.19 µM
C[C@@H]1NC(=O)[C@@H](N(C)C(=O)[C@H](CCN)NC(=O)c2ccc(-c3ccc(C(C)(C)C)cc3)cc2N)c2ccc(OCCN)c(c2)-c2cc(ccc2OCCN)C[C@@H](C(=O)NCC#N)NC1=O (racemic) [Compound 372, rac-(8S,11S,14S)-3,18-bis(2-aminoethoxy)-N-(cyanomethyl)-11-methyl-14-[methyl-[rac-(2S)-4-amino-2-[[2-amino-4-(4-tert-butylphenyl)benzoyl]amino]butanoyl]amino]-10,13-dioxo-9,12-diazatricyclo[13.3.1.12,6]icosa-1(18),2(20),3,5,15(19),16-hexaene-8-carboxamide] | 0.023 µM | 0.38 µM
Cc1cc(Oc2ccc(C(C)(C)C)cc2)cc(C)c1C(=O)N[C@@H](CCN)C(=O)N(C)[C@@H]1C(=O)N[C@@H](C)C(=O)N[C@H](C(=O)NCC#N)Cc2ccc(OCCN)c(c2)-c2cc1ccc2OCCN (racemic) [Compound 375, rac-(8S,11S,14S)-3,18-bis(2-aminoethoxy)-N-(cyanomethyl)-11-methyl-14-[methyl-[rac-(2S)-4-amino-2-[[4-(4-tert-butylphenoxy)-2,6-dimethyl-benzoyl]amino]butanoyl]amino]-10,13-dioxo-9,12-diazatricyclo[13.3.1.12,6]icosa-1(18),2(20),3,5,15(19),16-hexaene-8-carboxamide] | 0.031 µM | 0.5 µM
C[C@@H]1NC(=O)[C@@H](N(C)C(=O)[C@H](CCN)NC(=O)c2ccc(Oc3ccc(C(C)(C)C)cc3)cc2Cl)c2ccc(OCCN)c(c2)-c2cc(ccc2OCCN)C[C@@H](C(=O)NCC#N)NC1=O (racemic) [Compound 376, rac-(8S,11S,14S)-3,18-bis(2-aminoethoxy)-N-(cyanomethyl)-11-methyl-14-[methyl-[rac-(2S)-4-amino-2-[[4-(4-tert-butylphenoxy)-2-chloro-benzoyl]amino]butanoyl]amino]-10,13-dioxo-9,12-diazatricyclo[13.3.1.12,6]icosa-1(18),2(20),3,5,15(19),16-hexaene-8-carboxamide] | 0.016 µM | 0.25 µM
CCCCc1ccc(Oc2ccc(C(=O)N[C@@H](CCN)C(=O)N(C)[C@@H]3C(=O)N[C@@H](C)C(=O)N[C@H](C(=O)NCC#N)Cc4ccc(OCCN)c(c4)-c4cc3ccc4OCCN)c(Cl)c2)cc1 (racemic) [Compound 377, rac-(8S,11S,14S)-3,18-bis(2-aminoethoxy)-N-(cyanomethyl)-11-methyl-14-[methyl-[rac-(2S)-4-amino-2-[[4-(4-butylphenoxy)-2-chloro-benzoyl]amino]butanoyl]amino]-10,13-dioxo-9,12-diazatricyclo[13.3.1.12,6]icosa-1(18),2(20),3,5,15(19),16-hexaene-8-carboxamide] | 0.031 µM | 0.5 µM
CCCCc1ccc(Oc2ccc(C(=O)N[C@@H](CCN)C(=O)N(C)[C@@H]3C(=O)N[C@@H](C)C(=O)N[C@H](C(=O)NCC#N)Cc4ccc(OCCN)c(c4)-c4cc3ccc4OCCN)c(Cl)c2)cc1CCCC (racemic) [Compound 378, rac-(8S,11S,14S)-3,18-bis(2-aminoethoxy)-N-(cyanomethyl)-11-methyl-14-[methyl-[rac-(2S)-4-amino-2-[[2-chloro-4-(3,4-dibutylphenoxy)benzoyl]amino]butanoyl]amino]-10,13-dioxo-9,12-diazatricyclo[13.3.1.12,6]icosa-1(18),2(20),3,5,15(19),16-hexaene-8-carboxamide] | 0.031 µM | 0.38 µM
CCCCCCCc1ccc(C(=O)N[C@@H](CCN)C(=O)N(C)[C@@H]2C(=O)N[C@@H](C)C(=O)N[C@H](C(=O)NCC#N)Cc3ccc(OCCN)c(c3)-c3cc2ccc3OCCN)c(OCC(=O)O)c1 (racemic) [Compound 379, 2-[5-heptyl-2-[[rac-(1S)-3-amino-1-[methyl-[rac-(7S,10S,13S)-3,18-bis(2-aminoethoxy)-13-(cyanomethylcarbamoyl)-10-methyl-8,11-dioxo-9,12-diazatricyclo[13.3.1.12,6]icosa-1(19),2,4,6(20),15,17-hexaen-7-yl]carbamoyl]propyl]carbamoyl]phenoxy]acetic acid] | 0.26 µM | 1 µM
CCCCCCOc1ccc(-c2cc(-c3ccc(C(=O)N[C@@H](CCN)C(=O)N(C)[C@@H]4C(=O)N[C@@H](C)C(=O)N[C@H](C(=O)NCC#N)Cc5ccc(OCCN)c(c5)-c5cc4ccc5OCCN)cc3)no2)cc1 (racemic) [Compound 380, rac-(8S,11S,14S)-3,18-bis(2-aminoethoxy)-N-(cyanomethyl)-11-methyl-14-[methyl-[rac-(2S)-4-amino-2-[[4-[5-(4-hexoxyphenyl)isoxazol-3-yl]benzoyl]amino]butanoyl]amino]-10,13-dioxo-9,12-diazatricyclo[13.3.1.12,6]icosa-1(18),2(20),3,5,15(19),16-hexaene-8-carboxamide] | 0.045 µM | 0.48 µM
CCCCCc1ccc(-c2nc(C)c(C(=O)N[C@@H](CCN)C(=O)N(C)[C@@H]3C(=O)N[C@@H](C)C(=O)N[C@H](C(=O)NCC#N)Cc4ccc(OCCN)c(c4)-c4cc3ccc4OCCN)o2)cc1 (racemic) [Compound 381, 4-methyl-2-(4-pentylphenyl)-N-[rac-(1S)-3-amino-1-[methyl-[rac-(7S,10S,13S)-3,18-bis(2-aminoethoxy)-13-(cyanomethylcarbamoyl)-10-methyl-8,11-dioxo-9,12-diazatricyclo[13.3.1.12,6]icosa-1(19),2,4,6(20),15,17-hexaen-7-yl]carbamoyl]propyl]oxazole-5-carboxamide] | 0.067 µM | 4.3 µM
CCCCCc1ccc(-c2nc(C)c(C(=O)N[C@H](CCN)C(=O)N(C)[C@@H]3C(=O)N[C@@H](C)C(=O)N[C@H](C(=O)NCC#N)Cc4ccc(OCCN)c(c4)-c4cc3ccc4OCCN)o2)cc1 (racemic) [Compound 382, 4-methyl-2-(4-pentylphenyl)-N-[rac-(1R)-3-amino-1-[methyl-[rac-(7S,10S,13S)-3,18-bis(2-aminoethoxy)-13-(cyanomethylcarbamoyl)-10-methyl-8,11-dioxo-9,12-diazatricyclo[13.3.1.12,6]icosa-1(19),2,4,6(20),15,17-hexaen-7-yl]carbamoyl]propyl]oxazole-5-carboxamide] | 0.4 µM | 4.3 µM
C[C@@H]1NC(=O)[C@@H](N(C)C(=O)[C@H](CCN)NC(=O)c2ccn(-c3ccc(C(C)(C)C)cc3)c(=O)c2)c2ccc(OCCN)c(c2)-c2cc(ccc2OCCN)C[C@@H](C(=O)NCC#N)NC1=O (racemic) [Compound 383, rac-(8S,11S,14S)-3,18-bis(2-aminoethoxy)-N-(cyanomethyl)-11-methyl-14-[methyl-[rac-(2S)-4-amino-2-[[1-(4-tert-butylphenyl)-2-oxo-pyridine-4-carbonyl]amino]butanoyl]amino]-10,13-dioxo-9,12-diazatricyclo[13.3.1.12,6]icosa-1(18),2(20),3,5,15(19),16-hexaene-8-carboxamide] | 0.1 µM | 1.1 µM
C[C@@H]1NC(=O)[C@@H](N(C)C(=O)[C@H](CCN)NC(=O)c2cnn(-c3ccc(C(C)(C)C)cc3)c(=O)c2)c2ccc(OCCN)c(c2)-c2cc(ccc2OCCN)C[C@@H](C(=O)NCC#N)NC1=O (racemic) [Compound 384, rac-(8S,11S,14S)-3,18-bis(2-aminoethoxy)-N-(cyanomethyl)-11-methyl-14-[methyl-[rac-(2S)-4-amino-2-[[1-(4-tert-butylphenyl)-6-oxo-pyridazine-4-carbonyl]amino]butanoyl]amino]-10,13-dioxo-9,12-diazatricyclo[13.3.1.12,6]icosa-1(18),2(20),3,5,15(19),16-hexaene-8-carboxamide] | 0.033 µM | 0.4 µM
Cc1nc(-c2ccc(C(C)(C)C)cc2)nnc1C(=O)N[C@@H](CCN)C(=O)N(C)[C@@H]1C(=O)N[C@@H](C)C(=O)N[C@H](C(=O)NCC#N)Cc2ccc(OCCN)c(c2)-c2cc1ccc2OCCN (racemic) [Compound 385, rac-(8S,11S,14S)-3,18-bis(2-aminoethoxy)-N-(cyanomethyl)-11-methyl-14-[methyl-[rac-(2S)-4-amino-2-[[3-(4-tert-butylphenyl)-5-methyl-1,2,4-triazine-6-carbonyl]amino]butanoyl]amino]-10,13-dioxo-9,12-diazatricyclo[13.3.1.12,6]icosa-1(18),2(20),3,5,15(19),16-hexaene-8-carboxamide] | 0.017 µM | 0.27 µM
